{"source": "patent US20110195910A1", "about": "“USE OF TOCOTRIENOL COMPOSITION FOR THE PREVENTION OF CANCER” (DAVOS LIFE SCIENCE PTE. LTD., priority 2008, published 2011)", "key": {"DU145 prostaspheres": {"test_system": "DU145 prostaspheres", "test": "Treatment of pre-formed CSC-enriched DU145 prostaspheres", "assay_type": "cell-based", "settings": "40 ng/ml, 48 hrs", "protocol": "(A) CSC enriched prostaspheres were formed by maintaining DU145 cells in non-adherent culture supplemented with serum replacement medium for 14 days. The prostaspheres were then treated with either vehicle, γ-T3 (10, 20 μg/ml) or Docetaxel (Doc, 40 ng/ml) for 48 hrs. Spheroids were counted under microscope before and after treatment. Results were presented as mean % change in spheroid number to control±s.d. Note that spheroids were highly sensitive to γ-T3 treatment but resistant to high dose of Docetaxel. (B) Images of prostaspheres after 48 hrs treatment with vehicle, 40 ng/ml of Docetaxel and 10 μg/ml of γ-T3.\n5.1.7 Spheroid formation assay—Spheroid formation assay was performed with a protocol modified from previous study (Folkins C, p3560). Briefly, cells were first trypsinized, washed with 1× PBS and resuspended in DMEM F12 medium. Two hundred cells were added into each well of a 24-well-plate pre-coated with polyHEMA (Sigma, St. Louis, Mo.). Cells will be grown in DMEM/F12 mem (Invitrogen, Carlsbad, Calif.) supplemented with 4 μg/mL insulin (Sigma, St. Louis, Mo.), B27 (Invitrogen, Carlsbad, Calif.), 20 ng/mL EGF (Sigma, St. Louis, Mo.), and 20 ng/mL basic FGF (Invitrogen, Carlsbad, Calif.). Fresh medium with the above supplements was added every day. γ-T3 was added at indicated time points and the number of spheroids was counted at day 14 of the assay or at the end of the treatment. Each experiment was repeated in triplicates and each data point represented the mean and standard derivation."}, "DU145": {"test_system": "DU145", "settings": "cited from earlier work"}, "[1]": {"test_system": "human estrogen-independent BCa cells (MDA-MB-231)", "test": "MTT cell viability, MDA-MB-231 cells", "assay_type": "cell-based", "settings": "MDA-MB-231, 24 hours", "protocol": "1.1.3 Cell viability study and time course experiment—For cell viability study, 1×10^4 cells resuspended in 100 μl medium were plated into each well of a 96-well plate. The cells were then treated with different concentrations of the vitamin-E isomers for 24 hrs. After the treatment, 20 μl of 3-(4,5-Dimethyl thiazol-2-yl)-2,5-diphenyl tetrazolium bromide (MTT) solution was added into each well and the cells were incubated at 37° C. for 2 hrs. The formazan crystals were then re-suspended in 200 μl of DMSO and the intensity at 595 nm was measured. For JNK inhibitor study, cells were pre-treated with 20 μM of SP600125 for 8 hrs prior to the addition of vitamin-E isomers. For time course study, 5×10^3 cells were treated with different concentrations of the vitamin-E isomers and were subjected to MTT cell proliferation assay at the indicated time point. If IC50 for the isomer is >100 μM, 100 μM will be used as treatment dosage.\n3.1.4 Cell viability and time course experiments were carried out as described above under item 1.1.3 with the following difference. For inhibitors study, cells were pre-treated with inhibitors (U0126, PD98059 and APN) at targeted dosage for 8 hrs prior to the addition of vitamin-E isomers."}, "MDA-MB-231 cells": {"test_system": "MDA-MB-231 cells", "test": "Flow cytometry, western blotting and RT-PCR, MDA-MB-231 cells", "assay_type": "cell-based, human", "settings": "MDA-MB-231", "protocol": "1.1.3 Flow cytometry—Cell cycle distribution was examined using flow cytometry. Briefly, cells were harvested by trypsinization, fixed in 70% ethanol at 4° C. overnight, and then resuspended in PBS. After incubation at 4° C. for overnight, 2×10^6 cells were incubated with in 20 μg/ml propidium iodide (PI) and 2 mg RNaseA for 15 minutes at 37° C. Cells were then examined by BD SLRII cytometer and the results were analyzed using ModFit software (Becton Dickinson, Mountain View, Calif.). Data were expressed as the percentage of cell cycle distribution in the entire population.\n1.1.5 Western blotting—Detailed protocols have been described previously and are known in the art. Briefly, cell lysates were prepared by suspending cell pellets in lysis buffer [50 mmol/l Tris-HCl (pH 8.0), 150 mmol/l NaCl, 1% NP40, 0.5% deoxycholate, 0.1% SDS, 1 mg/ml aprotinin, 1 μg/ml leupeptin and 1 mmol/l phenylmethylsulfonyl fluoride]. For nuclear protein extraction, NucBuster™ protein extraction kit was used. Protein concentration was measured using the DC Protein Assay kit (Bio-Rad, Hercules, Calif.). Equal amount of protein (30 μg) was loaded onto a 10% SDS polyacrylamide gel for electrophoresis and then transferred onto a polyvinylidene difluoride membrane (Amersham, Piscataway, N.J.). The membrane was then incubated with primary antibodies for 1 hr at room temperature against E-cadherin (BD Biosciences, Bedford, Mass.), α-catenin, β-catenin, γ-catenin, Id-1, Id-3, EGFR, phosphor-c-jun, phosphor-ATF2, cleaved PARP, vimentin, α-smooth muscle actin, twist (Santa Cruz Biotechnology, Calif.), phosphor-IkB-alpha (Ser32/36), phosphor-IKK alpha (Seri 80)/IKK beta (Ser181), phosphor-SAPK/JNK (Thr183/Tyr185) G9, SAPK/JNK, NF-kB p65 (5A5) (Cell Signaling Technology Inc, Beverly, Mass.), Snail (Abcam). After incubation with appropriate secondary antibodies, signals were visualized by ECL western blotting system (Amersham, Piscataway, N.J.). Expression of β-actin and histone H1 were assessed as an internal loading control for total cell lysate and nuclear protein lysate respectively.\n3.1.5 DNA fragmentation assay—After 24 hrs incubation with gamma-T3, 3×10^6 MDA-MB-231 cells were harvested and suspended in lysis buffer [5 mM Tris-HCl (pH 8.0), 20 mM EDTA, and 0.5% (v/v) Triton X-100] for 60 min on ice. Samples were centrifuged, the supernatants were removed and incubated with 5 μl RNase A (10 μg/ml) at 37° C. for 40 min, and 1 ml of anhydrous ethanol was added. Tubes were placed at […] for 20 min and then centrifuged to pellet the DNA. DNA samples were analyzed by electrophoresis at 80 V for 3 hrs on a 2% agarose gel containing ethidium bromide (0.2 μg/ml) and visualized under UV illumination.\n3.1.6 Terminal deoxynucleotidyltransferase-mediated deoxyuridine triphosphate nick end-labelling (TUNEL) assay—DNA strand breaks during apoptosis was examined using in situ cell death detection reagent (Roche Applied Science). Briefly, 1×10^6 cells were pretreated with gamma-T3 for 24 hrs. Thereafter, cells were incubated with reaction mixture for 60 min at 37° C. Stained cells were analyzed and captured by fluorescence microscope on glass slide.\n3.1.7 Flow cytometry was carried out as described above under item 1.1.3. Matrigel-invasion assay was carried out as described above under item 1.1.4. Western blotting was carried out as described above under item 1.1.5.\n3.1.8 Id-1 RT-PCR—Total RNA was isolated using Trizol® reagent according to the manufacturer's protocol (Invitrogen). cDNA was synthesized using the SuperScript™ First Strand Synthesis System (Invitrogen) and was then amplified by PCR with Id-1 specific primers (forward primer, Id1-S, 5′-CTCCAGCACGTCATCGACTA-3′ and reverse primer, Id1-AS,5′-AAC GCA TGC CGC CTC-3′). PCR cycling protocol was as follows: 30 cycles of 10 min at 95° C., 30 s at 95° C., 30 s at 55° C., 1 min at 72° C. and 10 min at 72° C. Glyceraldehyde 3-phosphate dehydrogenase was amplified as an internal control. […]"}, "[2]": {"test_system": "human androgen-dependent PCa cells (LNCaP)", "test": "MTT cell viability, LNCaP cells", "assay_type": "cell-based", "protocol": "2.1.3 Cell viability study and time course experiment—For cell viability study, 5×10^3 cells resuspended in 100 μl medium were plated into each well of a 96-well plate. The cells were then treated with different concentrations (20, 40, 60, 80, 100 μM) of the vitamin-E isomers for 24 and 48 hrs. After the treatment, 20 μl of MTT solution was added into each well and the cells were incubated at 37° C. for 2 hrs. The formazan crystals were then re-suspended in 200 μl of DMSO and the intensity at 595 nm were measured. For JNK inhibitor study, cells were pre-treated with 20 μM of SP600125 for 8 hrs prior to the addition of vitamin-E isomers. For time course study, 5×10^3 cells (LNCaP and PC3) were treated with IC50 concentrations of the vitamin-E isomers and were subjected to MTT assay at the indicated time point. […] After 24 hrs, cells were subjected to western blotting and MTT assays respectively."}, "[3]": {"test_system": "prostate intraepithelial neoplasia (PIN)", "test": "Prevention of prostate intraepithelial neoplasia (PIN) in prostate cancer mouse models", "assay_type": "in vivo", "settings": "fed mice, FIG. 8", "protocol": "For experiments, 5-week old prostate cancer mouse models previously published (Gabril, M. Y., Duan, W., et al., Molecular Therapy (2005), vol. 11, no. 3, p. 348; Greenberg et al., Proc Natl Acad Sci USA (1995), vol. 92, pp. 3439-3443; Duan, W., Gabril, M. Y., et al., Oncogene (2005) 24, 1510-1524; Wang S, Gao J, et al., Cancer Cell., 2003, vol. 4, no. 3, pp. 209-21; Gabril, M. Y., Onita, T., et al., Gene Ther., 2002, vol. 9, no. 23, pp. 1589-99) are used. All animal experiments were conducted according to standard protocols approved by Animal Care Committee. Genotyping was performed in PSP-TGMAP, and KIMAP mice were identified by a quick PCR genotyping protocol as previously reported (see above references referred to under item 6).\nIn one exemplary experiment, the animals are given 1 mg of gamma tocotrienol per day for 30 weeks via oral gavage. At the end of 10, 20 and 30 weeks, animals are sacrificed. The prostate along with the male accessory glands, i.e., the ventral and dorsolateral prostate lobes, seminal vesicles, and coagulation gland, were dissected out separately for histopathological characterization of prostate tumor development, prostate intraepithelial neoplasia (PIN) development and microinvasion. […]"}}, "data": [{"smiles": "CC(=O)O[C@@]12CO[C@@H]1C[C@H](O)[C@@]1(C)C(=O)[C@H](O)C3=C(C)[C@@H](OC(=O)[C@H](O)[C@@H](NC(=O)OC(C)(C)C)c4ccccc4)C[C@@](O)([C@@H](OC(=O)c4ccccc4)[C@H]21)C3(C)C", "note": "[Docetaxel, (2R,3S)—N-carboxy-3-phenylisoserine, N-tert-butylester, 13-ester with 5,20-epoxy-1,2,4,7,10,13-hexahydroxytax-11-en-9-one-4-acetate-2-benzoate, trihydrate, reference compound]", "values": [{"measurement": "effect on prostasphere number", "setting": "DU145 prostaspheres", "value": "failed to induce any observable effect on prostasphere number"}, {"measurement": "IC90 dosage", "setting": "DU145", "value": 1.01, "unit": "ng/mL"}]}, {"smiles": "COc1cccc(-c2cc(=O)c3ccccc3o2)c1N", "note": "[PD98059]", "values": [{"measurement": "cancer cell viability after gamma-T3 treatment with MAPK inhibitor", "setting": "[1]", "value": "not able to restore cancer cell viability"}]}, {"smiles": "N#CC(=C(/N)Sc1ccccc1N)/C(C#N)=C(\\N)Sc1ccccc1N", "note": "[U0126]", "values": [{"measurement": "cancer cell viability after gamma-T3 treatment with MAPK inhibitor", "setting": "[1]", "value": "not able to restore cancer cell viability"}]}, {"smiles": "N#CCCN", "note": "[β-aminopropionitrile, reference compound]", "values": [{"measurement": "Id1 expression on co-treatment with gamma-T3", "setting": "MDA-MB-231 cells", "value": "almost completely restored the expression of Id1"}]}, {"smiles": "Cc1c(O)cc2c(c1C)O[C@](C)(CCC[C@H](C)CCC[C@H](C)CCCC(C)C)CC2", "note": "[γ-T, 7,8-dimethyltocol, reference compound]", "values": [{"measurement": "induction of apoptosis in LNCaP cells", "setting": "[2]; data not shown", "value": "induce apoptosis in LNCaP cells at a dose similar to γ-T3"}]}, {"smiles": "CC(C)=CCC/C(C)=C/CC/C(C)=C/CC[C@]1(C)CCc2cc(O)cc(C)c2O1", "note": "[δ-T3, 8-methyltocotrienol]", "values": [{"measurement": "potency in suppressing cell growth in LNCaP", "setting": "[2]; compared with the other isomers", "value": "more potent"}, {"measurement": "development of prostate intraepithelial neoplasia (PIN)", "setting": "[3]", "value": "did not develop PIN"}]}]}
